{
  "source": "patent US10206944B2",
  "about": "“Chondroitin for use in medicine” (ALTERGON S.A., priority 2012, dated 2019)",
  "key": {"[1]": {"system": "human bladder carcinoma cell line HT-1376", "assay": "Inhibition of growth of bladder cancer cells and polysaccharide-antitumoral synergism", "format": "cell-based", "conditions": "HT-1376, after 72 h, product taken individually", "experimental": "Human bladder cancer cell lines HT-1376 were used as system model, evaluating the ability of different combinations of GEM or MCC and C or CS to inhibit growth.\nHuman bladder carcinoma cell line HT-1376 (American Type Tissue Cultures Collection, Rockville, Md.) was cultured in DMEM supplemented with heat inactivated 10% foetal bovine serum (FBS), 20 mM 4,2-hydroxyethyl-1-piperazinyl-ethanesulphonic acid (HEPES), 100 U/mL penicillin, 100 µg/mL streptomycin, 1% w/v sodium L-glutamine and 1% w/v pyruvate. The cells were cultured in a humidified atmosphere comprising 95% air/5% CO2 at 37° C. For the study of synergism between C or CS and MMC or GEM in inhibiting the growth of HT-1376, the cells were seeded in 96-well plates at a density of 6*10^3 cells/well. After 24 hours' incubation at 37° C. the cells were treated with different concentrations of C or CS or GEM or MMC, and polysaccharide-antitumoral combinations thereof. The evaluation of polysaccharide-antitumoral synergism was based on analysis after 72 hours' treatment of the fraction curves of the surviving cells versus the concentration of antitumoral, conducted with the Calcusyn computer program (Biosoft, Ferguson, Mo.). The combination index values (CI) of <1, 1 and >1 indicate synergy, additivity and antagonism respectively in the polysaccharide-antitumoral interaction."}, "HT-1376 cells": {"system": "HT-1376 cells", "assay": "Flow cytometry of apoptotic and necrotic cells (Annexin V-FITC/PI)", "format": "cell-based, human", "design": "unit not given here", "conditions": "48 h, alone or combined", "procedure": "Flow cytometry was used to evaluate the quantity of apoptotic or necrotic cells. Fluorescein isothiocyanate (Annexin V-FITC) combined with propidium iodide (PI) was used as marker; the apoptotic cells were Annexin V-FITC positive and PI negative, and the necrotic cells were Annexin V-FITC positive and PI positive. The cells were labelled by incubating them with Annexin V-FITC (Diagnostics MedSystems) and PI (Sigma) in a binding buffer (10 mM HEPES, pH 7.4, 150 mM NaCl, 5 mM KCl, 1 mM MgCl2, 2.5 mM CaCl2) for 10 min at ambient temperature, and then washing and resuspending the cell material in the same buffer. The apoptotic and necrotic cells were analysed by flow cytometry (FACScan, Becton-Dickinson), acquiring an average of 2×10^4 events per sample, with determinations in triplicate on three separate experiments."}, "SOD-2 [2]": {"system": "SOD-2", "assay": "Real-Time PCR gene expression of SOD-2 in IL-1β-treated human chondrocytes", "format": "cell-based", "conditions": "2 h pre-treatment 1% w/v, IL-1β 10 ng/mL 24 h; untreated cells taken as 1", "excerpt": "The objective of the study was to evaluate the effects of chondroitin or chondroitin sulphate on gene expression of GRP78 and SOD-2 in human chondrocytes, after treatment with the pro-inflammatory cytokine IL-1β.\nHuman chondrocytes extracted from nasal cartilage treated with IL-1β, a pro-inflammatory cytokine which acts as mediator in the activation of the biological mechanisms underlying the onset of OA, were used in the study. In particular, the modulation of two markers involved in the manifestation of the inflammatory state, chaperonin GRP78 and the enzyme superoxide dismutase (SOD-2), was evaluated.\nIn a standard experiment, 10^4 cells were seeded per well of a 24-well multiwell plate, and after 5 days, when confluency was reached, the cells were starved for 24 hours (incubation in DMEM with 0.5% FBS). The cells were then treated for 2 h with 1% w/v of chondroitin (C) or chondroitin sulphate (CS) (endotoxin content ≤0.1 EU/mg), in DMEM without FBS; the control was maintained under the same conditions, but without the addition of C or CS. IL-1 β at the concentration of 10 ng/mL was then added to the cultures. After 24 h hours' incubation the cells were recovered and the RNA was extracted from them with Trizol Reagent, as described in the kit manual (Life Technologies Ltd, Milan Italy). […]"}, "GRP78": {"system": "GRP78", "assay": "Western blotting protein expression of GRP78 in IL-1β-treated human chondrocytes", "format": "cell-based", "conditions": "densitometric analysis of Western blotting versus tubulin; control = 1", "procedure": "(§1) In a standard experiment, 10^4 cells were seeded per well of a 24-well multiwell plate, and after 5 days, when confluency was reached, the cells were starved for 24 hours (incubation in DMEM with 0.5% FBS). The cells were then treated for 2 h with 1% w/v of chondroitin (C) or chondroitin sulphate (CS) (endotoxin content ≤0.1 EU/mg), in DMEM without FBS; the control was maintained under the same conditions, but without the addition of C or CS. IL-1 β at the concentration of 10 ng/mL was then added to the cultures. After 24 h hours' incubation the cells were recovered and the RNA was extracted from them with Trizol Reagent, as described in the kit manual (Life Technologies Ltd, Milan Italy). The gene expression values are confirmed by the protein expression data obtained in Western blotting by densitometric analysis of the GRP78 protein bands and SOD2 compared with the constitutive tubulin gene (Table 6)"}, "SOD-2 [3]": {"system": "SOD-2", "assay": "Western blotting protein expression of SOD-2 in IL-1β-treated human chondrocytes", "format": "cell-based", "conditions": "densitometric analysis of Western blotting versus tubulin; control = 1", "procedure": "as §1"}, "[4]": {"system": "volunteers suffering from severe impairment of the knee joint", "assay": "Viscosupplementation and cartilage repair in volunteers with knee joint impairment", "format": "in vivo, human", "procedure": "The aim of the study was to evaluate the therapeutic potential of the hyaluronic acid-chondroitin combination (HA-C) in joint disease associated with damage to the cartilaginous component of the joint. The study was conducted on 30 volunteers suffering from severe impairment of the knee joint, with damage to the cartilaginous component, evident ongoing inflammatory symptoms, swelling and pain. The volunteers, aged between 25 and 45 years, of both sexes, were randomised into three groups of 10; the control group was treated with saline, the HA group with hyaluronic acid and the HA-C group with a mixture of hyaluronic acid and chondroitin. The viscosupplementation treatment was performed 3 times at 2-month intervals by injecting into the joint 2 mL of a sterile, pyrogen-free solution consisting of a saline solution (0.9% NaCl) for the control group, a 20 mg/mL solution of hyaluronic acid 1,200 KDa for the HA group and a 20 mg/mL solution of hyaluronic acid 1,200 KDa+20 mg/mL of chondroitin for the HA-C group. Before and at the end of the 6-month study the volunteers underwent an X-ray and MRI scan of the joint. Three orthopaedic surgeons independently evaluated the development of the pathological symptoms (pain, inflammatory state and swelling), and repair of cartilage damage, over time (before treatment, and after 3 and 6 months), on a scale of 1 to 5 (where 1 represents absence of healing, and 5 indicates total remission of the pathological symptoms and complete repair of the damage to the cartilage tissue)."}, "[5]": {"system": "volunteers suffering from dry eye", "assay": "Ophthalmic eyedrops in volunteers suffering from dry eye", "format": "in vivo, human", "procedure": "Two ophthalmic preparations were compared: a conventional one based on hyaluronic acid and one based on chondroitin, both at the concentration of 3% w/v in NaCl saline solution at pH 7.4. The eyedrops were prepared in single-dose packaging sterilised in the autoclave. […] The volunteers, of both sexes, aged between 45 and 60 years, were randomised into two groups of 15, and treated with the two types of eyedrops. Under medical control the inflammatory state of the corneal surface was evaluated at the beginning and end of the treatment, and the evaluations of the treated patients relating to tolerability, duration of the wetting effect, and visual alteration after application, were recorded. A scale of 1 to 5 was used for the clinical evaluations and the patients' evaluations, where 5 represents optimum resolution of the pathological condition and its sequelae. […]"}, "[6]": {"conditions": "0.04 μg/mL of C or CS and 0.15 μg/mL of GEM"}, "[7]": {"conditions": "5.7 μg/mL of C or CS and 1.7 μg/mL of MMC"}},
  "data": [
    {"compound": "Nc1ccn([C@@H]2O[C@H](CO)[C@@H](O)C2(F)F)c(=O)n1", "note": "[GEM, gemcitabine]", "values": [
      {"measurement": "IC50", "setting": "[1]; Homo sapiens, read-out: IC50 (50% inhibition of growth)", "value": 0.5, "unit": "µg/mL"},
      {"measurement": "Cell state: apoptotic advanced", "setting": "HT-1376 cells; [6]", "value": "2 ± 1"},
      {"measurement": "Cell state: apoptotic early", "setting": "HT-1376 cells; [6]", "value": "1 ± 1"},
      {"measurement": "Cell state: necrotic", "setting": "HT-1376 cells; [6]", "value": "16 ± 3"},
      {"measurement": "Cell state: viable", "setting": "HT-1376 cells; [6]", "value": "81 ± 3"}
    ]},
    {"compound": "CO[C@@]12[C@H](COC(N)=O)C3=C(C(=O)C(C)=C(N)C3=O)N1C[C@@H]1N[C@@H]12", "note": "[MMC, mitomycin-C]", "values": [
      {"measurement": "IC50 (50% inhibition of growth)", "setting": "[1]", "value": 18, "unit": "μ/mL"},
      {"measurement": "Cell state: apoptotic advanced", "setting": "HT-1376 cells; [7]", "value": "2 ± 1"},
      {"measurement": "Cell state: apoptotic early", "setting": "HT-1376 cells; [7]", "value": "1 ± 1"},
      {"measurement": "Cell state: necrotic", "setting": "HT-1376 cells; [7]", "value": "33 ± 1"},
      {"measurement": "Cell state: viable", "setting": "HT-1376 cells; [7]", "value": "64 ± 5"}
    ]},
    {"compound": "IL-1β: pro-inflammatory cytokine, 10 ng/mL, positive control", "values": [
      {"measurement": "gene expression of SOD-2", "setting": "SOD-2 [2]", "value": "22 ± 4"},
      {"measurement": "Protein expression value of GRP78", "setting": "GRP78", "value": "1.15 ± 0.15"},
      {"measurement": "Protein expression value of SOD-2", "setting": "SOD-2 [3]", "value": "1.96 ± 0.20"}
    ]},
    {"compound": "hyaluronic acid [HA, reference compound]", "values": [
      {"measurement": "Cartilage repair", "setting": "[4]; 0 months, scale of 1 to 5", "value": "1.0 ± 0.1"},
      {"measurement": "Inflammation", "setting": "[4]; 0 months, scale of 1 to 5", "value": "1.3 ± 0.2"},
      {"measurement": "Swelling", "setting": "[4]; 0 months, scale of 1 to 5", "value": "1.2 ± 0.1"},
      {"measurement": "Pain", "setting": "[4]; 0 months, scale of 1 to 5, 5 total remission", "value": "1.6 ± 0.2"},
      {"measurement": "Cartilage repair", "setting": "[4]; 3 months, scale of 1 to 5", "value": "1.5 ± 0.2"},
      {"measurement": "Inflammation", "setting": "[4]; 3 months, scale of 1 to 5", "value": "3.1 ± 0.2"},
      {"measurement": "Pain", "setting": "[4]; 3 months, scale of 1 to 5", "value": "3.1 ± 0.4"},
      {"measurement": "Swelling", "setting": "[4]; 3 months, scale of 1 to 5", "value": "3.1 ± 0.3"},
      {"measurement": "Inflammation", "setting": "[4]; 6 months, scale of 1 to 5", "value": "4.1 ± 0.5"},
      {"measurement": "Pain", "setting": "[4]; 6 months, scale of 1 to 5", "value": "4.0 ± 0.3"},
      {"measurement": "Doctor: corneal inflammation", "setting": "[5]; 0 days, 3% w/v eyedrops, scale of 1 to 5, 5 optimum", "value": "1.0 ± 0.1"},
      {"measurement": "Patient: absence of visual alteration", "setting": "[5]; 10 days, scale of 1 to 5", "value": "3.5 ± 0.2"},
      {"measurement": "Patient: tolerability", "setting": "[5]; 10 days, scale of 1 to 5", "value": "3.8 ± 0.2"},
      {"measurement": "Patient: wetting effect", "setting": "[5]; 10 days, scale of 1 to 5", "value": "4.0 ± 0.2"},
      {"measurement": "Patient: absence of visual alteration", "setting": "[5]; 20 days, scale of 1 to 5", "value": "3.2 ± 0.1"},
      {"measurement": "Patient: tolerability", "setting": "[5]; 20 days, scale of 1 to 5", "value": "3.7 ± 0.3"},
      {"measurement": "Patient: wetting effect", "setting": "[5]; 20 days, scale of 1 to 5", "value": "4.1 ± 0.3"},
      {"measurement": "Doctor: corneal inflammation", "setting": "[5]; 30 days, 3% w/v eyedrops 4 times a day, scale of 1 to 5", "value": "3.5 ± 0.2"},
      {"measurement": "Patient: absence of visual alteration", "setting": "[5]; 30 days, scale of 1 to 5", "value": "3.6 ± 0.2"},
      {"measurement": "Patient: tolerability", "setting": "[5]; 30 days, scale of 1 to 5", "value": "3.9 ± 0.3"},
      {"measurement": "Patient: wetting effect", "setting": "[5]; 30 days, scale of 1 to 5", "value": "4.4 ± 0.3"}
    ]}
  ]
}
